# Test results taken from patent publication US20090192176A1, “1H-PYRAZOLO[3,4-D]PYRIMIDINE, PURINE, 7H-PURIN-8(9H)-ONE, 3H-[1,2,3]TRIAZOLO[4,5-D]PYRIMIDINE, AND THIENO[3,2-D]PYRIMIDINE COMPOUNDS, THEIR USE AS mTOR KINASE AND PI3 KINASE INHIBITORS, AND THEIR SYNTHESES” (Wyeth, priority 2008, published 2009).
# Legend:
# Format in all cases: biochemical
# [1] = target: T1, Human mTOR (Homo sapiens, UniProt P42345); experiment: mTOR kinase assay (DELFIA format, purified enzyme); settings: His6-S6K substrate, read-out: TOR Kinase IC50
# T1 construct: FLAG
# Description: mTOR Kinase Assay Methods
# Human mTOR assays (See Toral-Barza, et al. Biochem Biophys. Res. Commun. 2005 Jun. 24; 332(1):304-10) with purified enzyme are performed in 96-well plates by DELFIA format as follows. Enzymes are first diluted in kinase assay buffer (10 mM HEPES (pH 7.4), 50 mM NaCl, 50 mM β-glycerophosphate, 10 mM MnCl2, 0.5 mM DTT, 0.25 mM microcystin LR, and […]). To each well, 12 μL of the diluted enzyme is mixed briefly with 0.5 μL test inhibitor or control vehicle dimethylsulfoxide (DMSO). The kinase reaction is initiated by adding 12.5 μL kinase assay buffer containing ATP and His6-S6K to give a final reaction volume of 25 μL containing 800 ng/mL FLAG-TOR, […] and […]. The reaction plate is incubated for 2 hours (linear at 1-6 hours) at room temperature with gentle shaking and then terminated by adding 25 μL Stop buffer (20 mM HEPES (pH 7.4), 20 mM EDTA, 20 mM EGTA). The DELFIA detection of the phosphorylated (Thr-389) His6-S6K is performed at room temperature using a monoclonal anti-P(T389)-p70S6K antibody (1A5, Cell Signaling) labeled with Europium-N1-ITC (Eu) (10.4 Eu per antibody, PerkinElmer). The DELFIA Assay buffer and Enhancement solution can be purchased from PerkinElmer. 45 μL of the terminated kinase reaction mixture is transferred to a MaxiSorp plate (Nunc) containing 55 μL PBS. The His6-S6K is allowed to attach for 2 hours after which the wells are aspirated and washed once with PBS. 100 μL of DELFIA Assay buffer with 40 ng/mL Eu-P(T389)-S6K antibody is added. The antibody binding is continued for 1 hour with gentle agitation. The wells are then aspirated and washed 4 times with PBS containing 0.05% Tween-20 (PBST). 100 μL of DELFIA Enhancement solution is added to each well and the plates are read in a PerkinElmer Victor model plate reader. Data obtained is used to calculate enzymatic activity and enzyme inhibition by potential inhibitors.
# [2] = target: PI3 Kinase α (Homo sapiens, UniProt P42336); experiment: Fluorescence polarization assay for PI3K
# Sequence of PI3 Kinase α (P42336 whole entry): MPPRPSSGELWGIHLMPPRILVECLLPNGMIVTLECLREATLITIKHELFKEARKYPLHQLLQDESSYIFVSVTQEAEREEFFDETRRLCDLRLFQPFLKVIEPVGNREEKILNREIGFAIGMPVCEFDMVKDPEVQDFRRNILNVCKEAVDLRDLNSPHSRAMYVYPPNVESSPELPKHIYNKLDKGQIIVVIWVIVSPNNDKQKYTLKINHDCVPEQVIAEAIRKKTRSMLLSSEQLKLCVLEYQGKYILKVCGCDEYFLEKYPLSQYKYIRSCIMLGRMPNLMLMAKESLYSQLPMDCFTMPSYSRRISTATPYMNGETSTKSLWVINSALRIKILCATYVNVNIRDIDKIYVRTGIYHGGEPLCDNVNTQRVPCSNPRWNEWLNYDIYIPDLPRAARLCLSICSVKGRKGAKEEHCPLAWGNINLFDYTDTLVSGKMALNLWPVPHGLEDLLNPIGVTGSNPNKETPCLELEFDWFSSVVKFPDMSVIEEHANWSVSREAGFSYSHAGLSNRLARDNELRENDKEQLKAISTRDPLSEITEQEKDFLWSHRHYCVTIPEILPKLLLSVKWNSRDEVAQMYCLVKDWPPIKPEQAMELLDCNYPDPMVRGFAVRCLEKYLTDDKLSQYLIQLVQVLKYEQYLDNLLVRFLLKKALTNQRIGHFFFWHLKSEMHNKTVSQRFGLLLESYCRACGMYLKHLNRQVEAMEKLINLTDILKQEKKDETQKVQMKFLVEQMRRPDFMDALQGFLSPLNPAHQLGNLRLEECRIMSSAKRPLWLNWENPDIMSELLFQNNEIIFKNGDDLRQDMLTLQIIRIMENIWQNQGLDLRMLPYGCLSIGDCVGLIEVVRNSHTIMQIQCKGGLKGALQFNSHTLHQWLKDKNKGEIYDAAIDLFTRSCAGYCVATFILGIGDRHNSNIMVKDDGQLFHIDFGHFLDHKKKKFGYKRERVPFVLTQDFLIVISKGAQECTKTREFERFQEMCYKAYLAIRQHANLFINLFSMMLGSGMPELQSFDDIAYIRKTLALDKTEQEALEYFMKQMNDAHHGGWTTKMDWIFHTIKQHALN
# Sequence of PI3 Kinase α (P27986 whole entry partner): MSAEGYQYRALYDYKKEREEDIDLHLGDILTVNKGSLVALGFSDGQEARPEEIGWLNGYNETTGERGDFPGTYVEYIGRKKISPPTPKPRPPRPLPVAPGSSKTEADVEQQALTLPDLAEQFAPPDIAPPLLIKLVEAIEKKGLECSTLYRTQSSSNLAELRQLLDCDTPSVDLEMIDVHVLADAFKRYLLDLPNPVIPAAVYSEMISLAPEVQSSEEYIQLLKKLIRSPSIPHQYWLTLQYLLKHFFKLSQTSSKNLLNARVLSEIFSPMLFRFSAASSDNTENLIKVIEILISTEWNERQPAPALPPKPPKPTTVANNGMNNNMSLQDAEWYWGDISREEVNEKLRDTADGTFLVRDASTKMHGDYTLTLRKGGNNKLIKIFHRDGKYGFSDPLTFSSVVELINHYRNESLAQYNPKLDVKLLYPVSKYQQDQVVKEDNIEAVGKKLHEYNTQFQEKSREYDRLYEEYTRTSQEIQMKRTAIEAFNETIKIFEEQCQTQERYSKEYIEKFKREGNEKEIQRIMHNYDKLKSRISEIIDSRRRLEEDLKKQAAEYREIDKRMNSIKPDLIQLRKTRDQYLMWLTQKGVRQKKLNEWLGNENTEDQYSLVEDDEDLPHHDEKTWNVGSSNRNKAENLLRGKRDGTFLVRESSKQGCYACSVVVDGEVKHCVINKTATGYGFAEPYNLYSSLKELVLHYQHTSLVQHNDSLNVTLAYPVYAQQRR
# Description: (§1) Fluorescence Polarization Assay for PI3K
# (§2) This assay is used to determine the IC50 of compounds of the present invention as it identifies inhibitors of PI3 kinase by measuring inhibition.
# (§3) Reaction Buffer: 20 mM HEPES, pH 7.5, 2 mM MgCl2, 0.05% CHAPS; and 0.01% BME (added fresh) Stop/Detection Buffer: 100 mM HEPES, pH 7.5, 4 mM EDTA, 0.05% CHAPS; ATP 20 mM in water; PIP2 (diC8, cat# P-4508) 1 mM in water (MW=856.5); GST-GRP 1.75 mg/mL or 1.4 mg/mL in 10% glycerol; Red detector (TAMRA) 2.5 μM; Plate: Nunc 384 well black polypropylene fluorescence plate.
# (§4) The assay is run by placing 5 μL of diluted enzyme per well, then 5 μL of diluted compound (or 9.5 μL enzyme then 0.5 μL compound in DMSO) is added and mixed. Then, 10 μL substrate is added to start the reaction. The samples are incubated 30-60 minutes, then the reaction is stopped by adding 20 μL stop/detector mix. PI3K is diluted with reaction buffer (e.g., 5 μL or 7.5 μL PI3K into 620 μL reaction buffer), and 5 μL of diluted enzyme is used per well. 5 μL reaction buffer or drug diluted in buffer (e.g., 4 μL/100 so final DMSO is 1% in reaction) is added to each. Pipetting up and down mixes the samples. Alternatively, the enzyme can be diluted to 1215 μL. In this case 9.8 μL is added per well and 0.2 μL compound is added in DMSO. To prepare 1 mL of substrate solution, 955 μL reaction buffer, 40 μL PIP2, and 2.5 μL ATP are mixed. 10 μL of substrate is added to each well to start the reaction.
# (§5) Stop/detector mix is prepared by mixing 4 μL Red detector and 1.6 μL or 2.0 μL GST-GRP with 1 mL Stop buffer, which results in 10 nM probe and 70 nM GST-GRP). 20 μL of the stop/detector mix is added to each well to stop the reaction. The plates are read after 30-90 minutes keeping the red probe solutions dark. For the zero time point, stop/detector mix is added to the enzyme just before adding substrate. For an extra control, stop/detector mix is added to buffer (no enzyme) and substrate or to just buffer (no substrate). […] The recommended reaction has 0.06 μL per 20 μL (0.015 μg/20 μL) or 0.01125 μg/15 μL or 0.75 μg/mL. Plates are read on machines with filters for Tamra. The units are mP with no enzyme controls reading app 190-220 mP units. Fully active enzyme reduces fluorescence polarization down to 70-100 mP after 30 minutes. An active compound raises the mP values halfway to control or to 120-150 mP units.
# [3] = target: PI3 Kinase γ (Homo sapiens, UniProt P48736); experiment: Fluorescence polarization assay for PI3K
# Sequence of PI3 Kinase γ (P48736 whole entry): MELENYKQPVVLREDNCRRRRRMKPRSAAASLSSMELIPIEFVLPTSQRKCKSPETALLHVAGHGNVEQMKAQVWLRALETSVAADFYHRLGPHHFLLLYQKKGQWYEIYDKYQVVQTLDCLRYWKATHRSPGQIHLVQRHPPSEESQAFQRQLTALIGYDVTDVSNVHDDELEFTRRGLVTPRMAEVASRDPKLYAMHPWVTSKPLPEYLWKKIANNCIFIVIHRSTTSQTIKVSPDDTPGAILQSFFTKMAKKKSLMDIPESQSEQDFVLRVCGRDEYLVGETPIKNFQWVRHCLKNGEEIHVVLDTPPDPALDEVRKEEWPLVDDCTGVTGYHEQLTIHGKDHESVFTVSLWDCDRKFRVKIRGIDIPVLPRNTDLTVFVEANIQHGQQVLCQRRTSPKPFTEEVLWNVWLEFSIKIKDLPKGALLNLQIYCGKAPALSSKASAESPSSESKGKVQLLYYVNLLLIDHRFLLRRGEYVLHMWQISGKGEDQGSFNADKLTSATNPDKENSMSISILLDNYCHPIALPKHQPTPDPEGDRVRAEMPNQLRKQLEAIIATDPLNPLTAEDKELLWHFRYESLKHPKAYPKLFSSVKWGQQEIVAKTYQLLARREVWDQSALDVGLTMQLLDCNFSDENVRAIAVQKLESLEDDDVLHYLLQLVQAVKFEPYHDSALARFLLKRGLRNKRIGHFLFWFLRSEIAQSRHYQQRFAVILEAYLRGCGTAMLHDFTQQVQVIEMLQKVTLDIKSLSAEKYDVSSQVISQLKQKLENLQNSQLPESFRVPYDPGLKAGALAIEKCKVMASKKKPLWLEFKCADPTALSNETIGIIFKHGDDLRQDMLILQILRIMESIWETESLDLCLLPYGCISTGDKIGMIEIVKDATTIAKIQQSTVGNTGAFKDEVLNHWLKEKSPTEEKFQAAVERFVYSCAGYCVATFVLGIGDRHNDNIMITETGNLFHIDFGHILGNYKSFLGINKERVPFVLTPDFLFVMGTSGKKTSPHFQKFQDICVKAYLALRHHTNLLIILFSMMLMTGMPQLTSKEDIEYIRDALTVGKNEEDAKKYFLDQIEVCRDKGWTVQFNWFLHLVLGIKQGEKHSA
# Description: as §1, §2, §3, §4, §5
Compound,IC50 [1] [nM],IC50 [2] [nM],IC50 [3] [nM]
"5-[9-{1-[(5-bromopyridin-3-yl)methyl]piperidin-4-yl}-6-(3,6-dihydro-2H-pyran-4-yl)-9H-purin-2-yl]pyridin-3-ol [Compound 35]",9800,1340,6740
"Oc1cccc(-c2nc(C3=CCOCC3)c3nc[nH]c3n2)c1 [Compound 11, 3-[6-(3,6-dihydro-2H-pyran-4-yl)-9H-purin-2-yl]phenol]",1400,85,1250
"Oc1cccc(-c2nc(C3=CCOCC3)c3ncn(C4CCN(Cc5ccccc5)CC4)c3n2)c1 [Compound 12, 3-[9-(1-benzylpiperidin-4-yl)-6-(3,6-dihydro-2H-pyran-4-yl)-9H-purin-2-yl]phenol]",1800,1770,5000
"Oc1cccc(-c2nc(C3=CCOCC3)c3ncn(C4CCN(Cc5ccco5)CC4)c3n2)c1 [Compound 13, 3-{6-(3,6-dihydro-2H-pyran-4-yl)-9-[1-(2-furylmethyl)piperidin-4-yl]-9H-purin-2-yl}phenol]",1400,832,859
"Oc1cccc(-c2nc(C3=CCOCC3)c3ncn(C4CCN(Cc5ccc(N6CCOCC6)nc5)CC4)c3n2)c1 [Compound 14, 3-[6-(3,6-dihydro-2H-pyran-4-yl)-9-{1-[(6-morpholin-4-ylpyridin-3-yl)methyl]piperidin-4-yl}-9H-purin-2-yl]phenol]",860,1490,> 10000
"Oc1cccc(-c2nc(C3=CCOCC3)c3ncn(C4CCN(Cc5ccc[nH]5)CC4)c3n2)c1 [Compound 15, 3-{6-(3,6-dihydro-2H-pyran-4-yl)-9-[1-(1H-pyrrol-2-ylmethyl)piperidin-4-yl]-9H-purin-2-yl}phenol]",1400,280,736
"CN1CCC(n2cnc3c(C4=CCOCC4)nc(-c4cccc(O)c4)nc32)CC1 [Compound 16, 3-[6-(3,6-dihydro-2H-pyran-4-yl)-9-(1-methylpiperidin-4-yl)-9H-purin-2-yl]phenol]",2300,1630,3200
"Oc1cccc(-c2nc(C3=CCOCC3)c3ncn(C4CCN(Cc5cnc[nH]5)CC4)c3n2)c1 [Compound 17, 3-{6-(3,6-dihydro-2H-pyran-4-yl)-9-[1-(1H-imidazol-5-ylmethyl)piperidin-4-yl]-9H-purin-2-yl}phenol]",1200,1060,2580
"Cc1ccc(CN2CCC(n3cnc4c(C5=CCOCC5)nc(-c5cccc(O)c5)nc43)CC2)cc1 [Compound 18, 3-{6-(3,6-dihydro-2H-pyran-4-yl)-9-[1-(4-methylbenzyl)piperidin-4-yl]-9H-purin-2-yl}phenol]",2100,12000,12000

# The remaining lines, values ahead:
IC50 [1] [nM],IC50 [2] [nM],IC50 [3] [nM],Compound
14000,2420,1610,"7,9-dibenzyl-6-(3,6-dihydro-2H-pyran-4-yl)-2-(3-hydroxyphenyl)-7,9-dihydro-8H-purin-8-one [Compound 66]"
690,5000,> 10000,"Oc1cccc(-c2nc(C3=CCOCC3)c3ncn(C4CCN(Cc5ccc(Br)nc5)CC4)c3n2)c1 [Compound 19, 3-[9-{1-[(6-bromopyridin-3-yl)methyl]piperidin-4-yl}-6-(3,6-dihydro-2H-pyran-4-yl)-9H-purin-2-yl]phenol]"
,7000,> 10000,"Oc1cccc(-c2nc(C3=CCOCC3)c3ncn(C4CCN(Cc5ccc(F)c(F)c5)CC4)c3n2)c1 [Compound 20, 3-{9-[1-(3,4-difluorobenzyl)piperidin-4-yl]-6-(3,6-dihydro-2H-pyran-4-yl)-9H-purin-2-yl}phenol]"
3500,952,4360,"OCc1cccc(-c2nc(C3=CCOCC3)c3ncn(C4CCN(Cc5ccccc5)CC4)c3n2)c1 [Compound 21, {3-[9-(1-benzylpiperidin-4-yl)-6-(3,6-dihydro-2H-pyran-4-yl)-9H-purin-2-yl]phenyl}methanol]"
1900,1050,5400,"OCc1cccc(-c2nc(C3=CCOCC3)c3ncn(C4CCN(Cc5ccc(F)nc5)CC4)c3n2)c1 [Compound 22, {3-[6-(3,6-dihydro-2H-pyran-4-yl)-9-{1-[(6-fluoropyridin-3-yl)methyl]piperidin-4-yl}-9H-purin-2-yl]phenyl}methanol]"
3800,1490,7370,"OCc1cccc(-c2nc(C3=CCOCC3)c3ncn(C4CCN(Cc5cccnc5)CC4)c3n2)c1 [Compound 23, (3-{6-(3,6-dihydro-2H-pyran-4-yl)-9-[1-(pyridin-3-ylmethyl)piperidin-4-yl]-9H-purin-2-yl}phenyl)methanol]"
1700,1690,7620,"OCc1cccc(-c2nc(C3=CCOCC3)c3ncn(C4CCN(Cc5ccccn5)CC4)c3n2)c1 [Compound 24, (3-{6-(3,6-dihydro-2H-pyran-4-yl)-9-[1-(pyridin-2-ylmethyl)piperidin-4-yl]-9H-purin-2-yl}phenyl)methanol]"
890,228,1340,"OCc1cccc(-c2nc(C3=CCOCC3)c3ncn(C4CCN(Cc5ccc(Br)nc5)CC4)c3n2)c1 [Compound 25, {3-[9-{1-[(6-bromopyridin-3-yl)methyl]piperidin-4-yl}-6-(3,6-dihydro-2H-pyran-4-yl)-9H-purin-2-yl]phenyl}methanol]"
> 4000,2670,7000,"O=C(Nc1ccc(-c2nc(C3=CCOCC3)c3ncn(C4CCNCC4)c3n2)cc1)NC1CCNCC1 [Compound 26, 1-{4-[6-(3,6-dihydro-2H-pyran-4-yl)-9-piperidin-4-yl-9H-purin-2-yl]phenyl}-3-piperidin-4-ylurea]"
> 4000,3030,1080,"O=C(Nc1ccc(-c2nc(C3=CCOCC3)c3ncn(C4CCN(Cc5ccc[nH]5)CC4)c3n2)cc1)NC1CCN(C(=O)OCc2ccccc2)CC1 [Compound 27, benzyl 4-{[(4-{6-(3,6-dihydro-2H-pyran-4-yl)-9-[1-(1H-pyrrol-2-ylmethyl)piperidin-4-yl]-9H-purin-2-yl}phenyl)carbamoyl]amino}piperidine-1-carboxylate]"
3600,384,2400,"Oc1cncc(-c2nc(C3=CCOCC3)c3ncn(C4CCN(Cc5ccccc5)CC4)c3n2)c1 [Compound 28, 5-[9-(1-benzylpiperidin-4-yl)-6-(3,6-dihydro-2H-pyran-4-yl)-9H-purin-2-yl]pyridin-3-ol]"
